This is an account of results in PubChem BioAssay (NCI).

Assay in all cases: DTP human tumour cell line panel, 48 h
Assay [1] concerns COLO 205 colon.
In assay [2] the test system is BT-549 breast.
The subject of assay [3] is OVCAR-3 ovarian.
The test system of assay [4] is KM12 colon.
Assay [5] relates to HOP-92 NSCLC.
The subject of assay [6] is SK-MEL-5 melanoma.
Assay [7] has as its system SK-OV-3 ovarian.
Assay [8] has as its system U251 CNS.
For assay [9], the system named is K-562 leukemia.
Assay [10] relates to HCT-116 colon.
The test system of assay [11] is HT29 colon.
In assay [12] the test system is OVCAR-5 ovarian.
The subject of assay [13] is CCRF-CEM leukemia.

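Dose response: 5 concentrations. Exposure: 48 h. Format: 96-well plates. Endpoint: linear interpolation; highest concentration if not reached. TGI: concentration producing complete growth inhibition.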

Regarding `COc1ccc(/[N+]([O-])=C/c2ccc(OC(=S)S)c(OC)c2)cc1`, the total growth inhibition concentration (TGI) in assay [1] is > 100 µM; in assay [2] it was 79.7 µM; in assay [3], > 100 µM; in assay [4], 33.3 µM; in assay [5], 81 µM; in [6] it was 93.2 µM. Moreover, the TGI in [7], in assay [8], in assay [9], in assay [10], in assay [11] and in assay [12] was > 100 µM each time.
`Nc1nc(Cl)cc(NCC2(CCO)CCC2)n1`: the TGI in assay [13], in assay [2], in assay [3], in assay [4], in assay [5] and in [6] was > 100 µM each time. Also, the TGI in assay [7], in [8], in assay [9], in assay [10], in assay [11] and in assay [12] was > 100 µM throughout.
`Cc1nc(OCc2ccccc2)c2ncn(CCO)c2n1`: the total growth inhibition concentration (TGI) in [13], in [1], in assay [2], in [3], in assay [4] and in [5] was > 100 µM throughout. In addition, the total growth inhibition concentration (TGI) in [6], in assay [7], in [8], in assay [10], in assay [11] and in assay [12] was > 100 µM throughout.
Turning to `Cc1nc2c(c(N3CCN(C)CC3)n1)Cc1ccccc1-2`, the concentration for total growth inhibition (TGI) in [13], in assay [1], in assay [2], in assay [4], in assay [5] and in [6] was > 100 µM each time. The TGI in assay [7], in assay [8], in [9], in [10], in [11] and in assay [12] was > 100 µM throughout.
Consider `ClCc1nc2ccccc2[nH]1`, for which the TGI in assay [13], in [1], in assay [2], in assay [3], in assay [4] and in [5] was > 100 µM throughout. The concentration for total growth inhibition (TGI) in assay [6], in [8], in assay [9], in [10], in assay [11] and in assay [12] was > 100 µM in each case.
For the molecule `COC(=O)C(Cc1c[nH]c2ccccc12)NC(=O)C(Cc1cnc[nH]1)NC(=O)C1CCC(=O)N1C(=O)OCc1ccccc1` (stereo not drawn), the TGI in assay [13], in assay [1], in assay [2], in assay [4], in assay [5] and in assay [6] was > 100 µM each time. The TGI in assay [8], in [9], in assay [10], in [11] and in assay [12] was > 100 µM in each case.
With `O=P1(c2ccccc2)C(c2ccccc2)CCC1c1ccccc1` (stereo not drawn), the TGI in assay [13] was > 100 µM; in assay [1] it was > 100 µM; in assay [2] it was 85.5 µM; in assay [3] it was > 100 µM; in [4], > 100 µM; in assay [5] it was > 100 µM. Further, the TGI in assay [6], in [7], in [9] and in assay [10] was > 100 µM in each case.
In the case of `O=c1[nH]c(Nc2ccc(Br)c(C(F)(F)F)c2)nc2nc[nH]c12`, the TGI in [13] was > 100 µM; in [1] it was 41 µM; in assay [2], > 100 µM; in assay [3] it was 87 µM; in assay [4], > 100 µM; in assay [5], > 100 µM. For the same molecule, the TGI was 71.8 µM in [6]; > 100 µM in assay [7]; > 100 µM in [8]; > 100 µM in [10]; > 100 µM in [11]; > 100 µM in assay [12].
As to `NCC(=O)Nc1ccccc1`, the concentration for total growth inhibition (TGI) in [2], in assay [3], in assay [4], in assay [5], in [6] and in [8] was > 100 µM each time. The concentration for total growth inhibition (TGI) in assay [9], in assay [10], in assay [11] and in assay [12] was > 100 µM throughout.
As for `CN1CCC2(CC1)SSC1(CCN(C)CC1)S2`, the TGI in [13], in assay [1], in [2], in assay [4], in assay [5] and in assay [6] was > 100 µM throughout. For the same molecule, the total growth inhibition concentration (TGI) in [7], in [8], in [9], in [10], in [11] and in assay [12] was > 100 µM each time.
For `Nn1c(CCCCCCCCc2nnc(-c3c(O)ccc4ccccc34)n2N)nnc1-c1c(O)ccc2ccccc12`, the TGI in assay [1], in assay [2], in assay [3], in assay [4], in assay [5] and in assay [6] was > 100 µM in each case. The concentration for total growth inhibition (TGI) in [7], in assay [8], in [10], in [11] and in assay [12] was > 100 µM in each case.
Consider `C=C1C2CCC3C4(C)CCCC(C)(C(=O)O)C4CCC3(C2)C1OC(=O)/C(C)=C/C` (stereo not drawn), for which the concentration for total growth inhibition (TGI) in assay [13] was > 100 µM; in assay [1], 82.1 µM; in assay [2], > 100 µM; in [3] it was 41 µM; in assay [4] it was 35.1 µM; in assay [5], 54.6 µM. Besides, the concentration for total growth inhibition (TGI) was 75.6 µM in assay [6]; 70.2 µM in assay [7]; > 100 µM in assay [8]; > 100 µM in assay [10]; > 100 µM in assay [11]; 79.5 µM in [12].

The TGI is the concentration at which net growth stops. Read a low TGI as more potent growth arrest.
